Reference: patent publication US20030207812A1, “Cd45 inhibitors” (priority 2002, published 2003)
Read-outs that look alike come from different tables or passages of the source.

Columns and labels:
CD45 [1] = target: T1, CD45 (Homo sapiens, UniProt P08575); test: Phosphatase assay using pNPP as substrate; assay type: biochemical; conditions: CD45 phosphatase, pNPP substrate, pH 7.0; read-out: pNPP IC50
T1 construct: incubating the cytosolic portion of CD45 with the compounds and p-nitrophenyl phosphate (pNPP); purchased BIOMOL (Plymouth Meeting, Pa.)
T1 sequence (P08575 599-1306 limits assumed): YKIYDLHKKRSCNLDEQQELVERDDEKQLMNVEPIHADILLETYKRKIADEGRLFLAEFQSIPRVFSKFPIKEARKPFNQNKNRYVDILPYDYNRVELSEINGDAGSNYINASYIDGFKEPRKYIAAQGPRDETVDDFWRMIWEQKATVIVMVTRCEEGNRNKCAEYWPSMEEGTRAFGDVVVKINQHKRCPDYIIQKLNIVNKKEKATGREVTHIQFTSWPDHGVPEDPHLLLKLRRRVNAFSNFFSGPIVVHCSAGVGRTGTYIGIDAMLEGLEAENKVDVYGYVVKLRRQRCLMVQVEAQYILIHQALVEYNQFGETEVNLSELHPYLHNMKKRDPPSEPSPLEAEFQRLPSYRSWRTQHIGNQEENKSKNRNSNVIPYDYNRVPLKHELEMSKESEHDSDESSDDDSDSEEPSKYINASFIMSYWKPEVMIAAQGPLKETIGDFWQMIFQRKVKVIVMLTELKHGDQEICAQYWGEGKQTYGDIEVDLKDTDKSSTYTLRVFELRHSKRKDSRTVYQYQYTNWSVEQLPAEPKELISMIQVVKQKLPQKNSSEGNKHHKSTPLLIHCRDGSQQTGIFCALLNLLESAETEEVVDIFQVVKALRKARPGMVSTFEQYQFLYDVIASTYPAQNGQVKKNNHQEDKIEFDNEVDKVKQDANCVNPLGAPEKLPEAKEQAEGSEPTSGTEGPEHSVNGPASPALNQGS
Procedure: Phosphatase assay using pNPP as substrate:
CD45 enzyme was obtained from BIOMOL (Plymouth Meeting, Pa.). Phosphatase activity was assayed in a buffer containing final concentrations of 25 mM imidazole at pH 7.0, 50 mM NaCl, 2.5 mM ethylenediaminetetraacetic acid (“EDTA”), 5 mM dithiothreitol (“DTT”) and 10 μg/mL bovine serum albumin (“BSA”) using pNPP as a substrate.

CD45 [2] = target: T1, CD45; test: Phosphatase assay using lck 10-mer as substrate; assay type: biochemical; conditions: CD45 phosphatase, lck carboxy-terminal peptide TEGQpYQPQP substrate, pH 7.2; read-out: Ick IC50
In short: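 Enzyme incubated with lck phosphopeptide TEGQpYQPQP for 1.5 h at room temperature in 25 mM HEPES pH 7.2, 5 mM DTT, 10 μg/mL BSA, 5% DMSO final. Compounds tested from 30 to 0.01 μM. Released phosphate detected with malachite-type Green Reagent, absorbance at 620 nm after 30 min.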

T cells (PBMC) = test: cells; assay type: cell-based, human; conditions: human PBMC, OKT3 30 ng/mL, [3H]thymidine; read-out: T cell prolif. IC50
T-cell lymphoblasts [3] = test: Cytotoxicity assay (Calcein-AM uptake); conditions: PHA-expanded T-cell lymphoblasts, overnight incubation, Calcein-AM
T-cell lymphoblasts [4] = system: T-cell lymphoblasts

| IC50 (CD45 [1]) | IC50 (CD45 [2]) | Compound | IC50 (T cells (PBMC)) | CC50 (T-cell lymphoblasts [3]) | CC50 (T-cell lymphoblasts [4]) |
| --- | --- | --- | --- | --- | --- |
| 0.7 µM | 6.9 µM | 8-(9,10-Dioxo-9,10-dihydro-phenanthren-3-ylcarbamoyl)-heptanoic Acid Methyl Ester [Example 78] | 1.3 µM | 28 µM | – |
| 4.49 µM | > 30 µM | O=C1C(=O)c2c(-c3ccc4ccccc4c3)cccc2-c2ccccc21 [Example 19, 1 -Naphthalen-2-yl-phenanthrene-9,10-dione] | 1.6 µM | – | 4.4 µM |
| 1.6 µM | > 30 µM | COC(=O)CCCCCCCCC(=O)Nc1ccc2c(c1)-c1ccccc1C(=O)C2=O [Example 79, 9-(9,10-Dioxo-9,10-dihydro-phenanthren-3-ylcarbamoyl)-nionanoic Acid Methyl Ester] | 0.5 µM | > 30 µM | – |

More lines, now with the values behind:

| Compound | IC50 (CD45 [1]) | IC50 (CD45 [2]) | IC50 (T cells (PBMC)) | CC50 (T-cell lymphoblasts [3]) | CC50 (T-cell lymphoblasts [4]) |
| --- | --- | --- | --- | --- | --- |
| CCCC(=O)Nc1ccc2c(c1)-c1ccccc1C(=O)C2=O [Example 9, N-(9,10-Dioxo-9,10-dihydro-phenenathren-3-yl)-butyramide] | 0.8 µM | 5.2 µM | 0.8 µM | 9.1 µM | – |
| O=C1C(=O)c2ccc(NC(=O)C(Cl)(Cl)Cl)cc2-c2ccccc21 [Example 11, 2,2,2-Trichloro-N(9,10-dioxo-9,10-dihydro-phenanthren-3-yl)-acetamide] | 2.8 µM | 11.6 µM | 6.5 µM | > 30 µM | – |
